The results in this text go back to paper PMC7714073, “Inhibition properties of free and conjugated leupeptin analogues” (FEBS Open Bio, 2020).

Non-standard residues stand in square brackets, D forms with d. Residues, ends and D or L forms follow the SMILES beside them. Ahx = NCCCCCC(=O)O

The Km is the concentration of substrate that gives half-maximal velocity.

Holding throughout (format): biochemical, porcine
The target in data set [1] is T1, trypsin (Sus scrofa, UniProt P00761).
T1 construct: purchased Sigma-Aldrich; host or cells: porcine pancreas
T1 sequence (P00761 9-231): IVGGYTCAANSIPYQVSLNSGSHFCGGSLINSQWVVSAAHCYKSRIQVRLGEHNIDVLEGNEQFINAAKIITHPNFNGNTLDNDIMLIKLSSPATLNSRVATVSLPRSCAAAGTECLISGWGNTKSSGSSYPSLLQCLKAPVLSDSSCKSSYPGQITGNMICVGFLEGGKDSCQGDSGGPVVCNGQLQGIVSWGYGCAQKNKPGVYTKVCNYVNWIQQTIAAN
Briefly: Trypsin inhibition, real-time measurements of initial velocities with BAPA (free inhibitors). The conditions noted are these: apparent Ki, tight-binding (Morrison) fit; 0.1 M NH4HCO3 pH 7.52, 2% (v/v) DMSO, BAPA 1 mM, trypsin 0.25 µM, KM 0.82 mM, read at 410 nm. How it is done:
Fig. 4 The ratio vi/v 0 is plotted as a function of the inhibitor peptide Ahx–Phe–Leu–Arg–COOH (A) and Ahx–Leu–Leu–Arg–COOH (B). […] Error bars represent standard deviation.
Kinetic parameters were obtained by measuring initial velocities in the presence of selected concentrations of natural leupeptin (0.14–1.62 µM), oxidized leupeptin (8–127 µM), reduced leupeptin (10–413 µM) and peptides 1 and 2 (8–254 µM). All reactions were performed in 0.1 M NH4HCO3 (pH 7.52) and 2% (v/v) DMSO using concentrations of BAPA and trypsin fixed at 1 mM and 0.25 µM, respectively. The reaction was monitored at 410 nm in a Shimadzu UV‐1601 UV‐Vis spectrophotometer.
(§1) For real‐time and end point measurements, the Ki value was estimated by the graphical method of Dixon and Morrison (Eqn 1). Ki was extracted after fitting the data to Eqns (1,2) using GRAPHPAD PRISM 8 (GraphPad Software, San Diego, CA, USA). A K M of 0.82 mM was used for the calculations.(1) vi/vo=1‐([E]+[I]+Kiapp)‐[E]+[I]+Kiapp^2‐4[E][I]/2[E]
(§2) The form of Kappi varies with the type of inhibitor. For competitive inhibitors, as in the case of leupeptin, the Ki value can be calculated from Eqn (2):(2) Kiapp=Ki1+[S]/KM

The target in data set [2] is T1, trypsin. Briefly: Trypsin inhibition, end point measurements with BAPA (conjugated peptide). The conditions noted are these: for Efficiency: Ki,free/Ki,app = [I]eff/[I]tot, free Ahx–Phe–Leu–Arg–COOH as reference (1.00); for Ki: end point measurements. Here is the method: Fig. 5 vi/v 0 is plotted as a function of the conjugated TiO2–Ahx–Phe–Leu–Arg–COOH (A), ZnO–Ahx–Phe–Leu–Arg–COOH (B) and WorkBeads™‐Ahx‐Phe‐Leu‐Arg‐COOH (C). […] Error bars represent standard deviation.
Kinetic parameters were obtained by mixing substrate, enzyme and conjugate in a plastic Eppendorf tube with varying concentrations of TiO2–peptide 1 0–70 μM, ZnO–peptide 1 0–60 μM and gel beads conjugated to peptide 1 0–60 μM and incubating with end‐over‐end rotation. A total of 150 µL aliquots was withdrawn at five time points for each reaction, and the reaction was stopped in 100 mM acetic acid (pH 3). Absorbance was measured at 410 nm in a UV‐1601 UV‐Vis spectrophotometer (Shimadzu, Columbia, MD, USA).
as §1, §2

The target of data set [3] is T1, trypsin. In words: Gelatin erosion method: inhibition activity of free and conjugated peptide in gelatin layer. The conditions noted are these: for Rate (erosion well formation rate, linear regression): gel experiment; for Plateau (relative asymptotic plateau value, asymptotic area ratio at virtually maximal inhibition): gelatin erosion, relative area increase rate vs inhibitor concentration, fitted in GRAPHPAD PRISM 8. An excerpt:
The gelatin erosion method that simulates a surface with a protective cover layer is here used to evaluate the function of the peptide in its different conjugation states where the relative area increase rate is plotted against the increasing inhibitor concentration in Fig. 6. The curves obtained as a function of concentration for the free peptide and the TiO2‐conjugated peptide, respectively, are virtually identical. […] This may tentatively be explained by a model where the enzyme molecules, once ‘captured’ by the immobilized peptides, also interact nonspecifically with the ZnO surface, resulting in addition of binding energies and thus also cooperative binding. As has been noted earlier by us, the well area converges to an asymptotic nonzero value ‘plateau’ at high inhibitor concentration that is virtually identical for the different cases. The limit may actually be set by the size of the droplet applied and initial enzyme diffusion. However, the similar limiting values further confirm that the inhibition modes are identical for free and conjugated inhibitor. […] This is actually in accordance with the pattern observed for the ZnO conjugate. […] For details regarding the gelatin erosion method, see Fig. S3 and Table S2.
The experiments were performed as described earlier. The concentration of the free inhibitor Ahx–Phe–Leu–Arg–COOH was ranging from 5 to 50 μM, for ZnO conjugate 1–15 μM and for TiO2 conjugate 1–25 μM.
Table S2. The rates, given by the linear regression, are given below for the gel experiment for free Ahx-Phe-Leu-Arg-COOH and its conjugated state to TiO2 and ZnO.

The target of data set [4] is T1, trypsin. In words: Kinetic measurements of TiO2-peptide conjugate (Vmax, Km; Fig. S2/Table S1). The conditions noted are these: trypsin with conjugate present, 0.1 M NH4HCO3 pH 7.52, trypsin 0.125 µM, 34 mg conjugate (6.06 nmol peptide/mg TiO2) per reaction. Here is the method:
Figure S2. Kinetic measurements of TiO2-peptide conjugate.
Table S1. Extracted values from figure S2. Experiment setup: Buffer 0.1 M NH4HCO3 pH 7.52, [Trypsin] (in eppendorf) = 0.125 µM, 34 mg TiO2-Ahx-Phe-Leu-COOH
(6.06 nmol mod. peptide/mg TiO2) in each reaction.

Where [5] appears, read: apparent Ki of conjugated peptide, five time points, stopped in 100 mM acetic acid pH 3, 410 nm, trypsin 0.25 μM, BAPA 1 mM, Km 0.82 mM, read-out: Ki.
Setting [6] is: apparent Ki of the stored conjugate, storage time not given (conjugates stored at 4 °C), read-out: Ki stored.

Take `CC(=O)N[C@@H](CC(C)C)C(=O)N[C@@H](CC(C)C)C(=O)N[C@H](CO)CCCNC(=N)N` [reduced leupeptin]: the Ki on trypsin [1] came to 270 ± 100 µM.

In the case of `CC(C)C[C@H](NC(=O)CCCCCN)C(=O)N[C@@H](CC(C)C)C(=O)N[C@@H](CCCNC(=N)N)C(=O)O` [Ahx–Leu–Leu–Arg–COOH] (H-[Ahx]LLR-OH), the Ki on trypsin [1] was determined as 9.5 ± 1 µM.

Regarding `CC(=O)N[C@@H](CC(C)C)C(=O)N[C@@H](CC(C)C)C(=O)N[C@@H](CCCNC(=N)N)C(=O)O` [oxidized leupeptin], on trypsin [1], the Ki is 2.7 ± 0.1 µM.

Turning to `CC(=O)N[C@@H](CC(C)C)C(=O)N[C@@H](CC(C)C)C(=O)N[C@H](C=O)CCCNC(=N)N` [Leupeptin, Ac–Leu–Leu–Arg–CHO], the Ki at trypsin [1] was found to be 0.088 ± 0.008 µM.

In the case of ZnO–Ahx–Phe–Leu–Arg–COOH, the Efficiency at trypsin [2] was 0.77. The figures for the Ki on trypsin [2] (setting [5]) and on trypsin [2] (setting [6]) were 4.4 ± 1.3 µM and 7.6 ± 1.5 µM, respectively. Also, the “Rate (erosion well formation rate, linear regression)” value on trypsin [3] (1 μM inhibitor) stood at 3.1 ± 0.5 mm^2/ μMtrypsin; on trypsin [3] (5 μM inhibitor), 2.3 ± 0.50 mm^2/ μMtrypsin; on trypsin [3] (10 μM inhibitor) it was 2.2 ± 0.4 mm^2/ μMtrypsin; at trypsin [3] (15 μM inhibitor) it was 2.0 ± 0.5 mm^2/ μMtrypsin. Also, the “Plateau (relative asymptotic plateau value, asymptotic area ratio at virtually maximal inhibition)” value on trypsin [3] is 0.46 ± 0.02.

TiO2–Ahx–Phe–Leu–Arg–COOH returned an Efficiency at trypsin [2] of 0.32. Also, the Ki was determined as 11 ± 2 µM on trypsin [2] (setting [5]) and 7.1 ± 1.1 µM at trypsin [2] (setting [6]). Further, the “Rate (erosion well formation rate, linear regression)” value at trypsin [3] (1 μM inhibitor) was determined as 4.0 ± 0.4 mm^2/ μMtrypsin; on trypsin [3] (5 μM inhibitor), 3.5± 0.4 mm^2/ μMtrypsin; on trypsin [3] (10 μM inhibitor), 3.6 ± 0.1 mm^2/ μMtrypsin; at trypsin [3] (15 μM inhibitor) it was 2.00 ± 0.1 mm^2/ μMtrypsin; on trypsin [3] (25 μM inhibitor), 2.2 ± 0.3 mm^2/ μMtrypsin. Besides, at trypsin [3], the “Plateau (relative asymptotic plateau value, asymptotic area ratio at virtually maximal inhibition)” value is recorded as 0.42 ± 0.21. In the data set with trypsin [4] (no inhibitor: 2.9 ± 0.8), the Km is 6.4 ± 1.2 mM. In the data set with trypsin [4] (no inhibitor: 720 ± 100), the Vmax is reported as 250 ± 30.

On to “WorkBeads™‐Ahx‐Phe‐Leu‐Arg‐COOH [Ahx–Phe–Leu–Arg–COOH coupled to WorkBeads™ 40/1000 ACT agarose gel beads, 150 nmol·mL^−1 beads]”, for which, at trypsin [2], the Efficiency was found to be 0.12. The “fraction of the conjugated peptides available for the enzyme” value on trypsin [2] (according to the efficiency, peptide conjugated to agarose gel beads) is “about 10%”. Further, the Ki turned out to be 29 ± 4 µM on trypsin [2] (setting [5]) and 53 ± 9 µM on trypsin [2] (setting [6]).

For `CC(C)C[C@H](NC(=O)[C@H](Cc1ccccc1)NC(=O)CCCCCN)C(=O)N[C@@H](CCCNC(=N)N)C(=O)O` [Ahx–Phe–Leu–Arg–COOH, 6‐aminohexanoic acid (Ahx)–Phe–Leu–Arg–COOH] (H-[Ahx]FLR-OH), at trypsin [1], the Ki was found to be 3.4 ± 0.2 µM.
